Results from patent publication US9517222B2, “Method for the treatment of senile dementia of the Alzheimer's type” (Phenomenome Discoveries Inc., priority 2007, dated 2016).

Tests used:
Type in all cases: cell-based
[1] = tested on: wild type CHO cells; experiment: Restoration of PtdEt and EtnPl pools in vitro, wild type CHO cells; conditions: 20 μM, 72 hours
Description: (§1) FIGS. 25A-B show the relative change in the total EtnPls and PtdEt content. […] Values are normalized to untreated control CHO cells, and are an average of three independent experiments. Statistical significance was determined using a two-tailed t-test.
(§2) FIGS. 26A-B show the relative change in the DHA-EtnPls and DHA-PtdEt content. […] Values are normalized to untreated control CHO cells, and are an average of three independent experiments. Statistical significance was determined using a two-tailed t-test.
(§3) To investigate whether exogenous metabolic precursors can restore the ethanolamine phospholipids deficiency in vitro, a CHO cell line deficient in plasmalogen synthesis (NRel-4) was treated with the metabolic precursors 5a (sn-1-alkyl,sn-2-DHA glycerol) for 72 hours at a concentration of 20 μM, and its lipid profile was compared with the wild type cell line.

[2] = tested on: plasmalogen-deficient NRel-4 cells; experiment: Restoration of PtdEt and EtnPl pools in vitro, plasmalogen-deficient NRel-4 cells; conditions: 20 μM, 72 hours
Description: as §1, §2, §3

[3] = tested on: NRel-4 cell line; experiment: Total, free and esterified cholesterol in cultured cells (Cholesterol Quantification kit)
Description: Total cholesterol (solid bars), esterified cholesterol (hatched bars), and free cholesterol (dotted) content is represented as μg per million cells. C_V: control CHO cells treated with ethanol carrier; N_V: NRel4 cells treated with ethanol carrier; N_5a: Nrel-4 cells treated with metabolic precursor 5a (20 μM).
To test the effect of metabolite precursors on total and esterified cholesterol in vitro, the CHO/NRel-4 cell line model was used. […] CHO cell line cultured in the presence of the ethanol vehicle (C_V) has 6.66 μg total cholestero/million cells. This reflects the wild type phenotype, and was used for normalization. The NRel-4 cell line deficient in plasmalogen synthesis cultured in the presence of ethanol vehicle (N_V) had 10.75 μg total cholestero/million cells (61% higher than control). Culturing the deficient cells with the metabolic precursor 5a (sn-1-alkyl, sn-2-DHA glycerol) for 72 hours at a concentration of 20 µM (N_5a) reduced the total cholesterol content to […] (24% higher than control). […] Treatment with 5a reduced the free cholesterol content to 5.8 μg/million cells. A reciprocal trend was observed when assaying the fraction of cholesterol that was esterified in the cell lines.

Structure (SMILES): CC/C=C\C/C=C\C/C=C\C/C=C\C/C=C\C/C=C\CCC(=O)OC(CO)COCCCCCCCCCCCCCCCC (racemic) [Metabolite 5a, (4Z,7Z,10Z,13Z,16Z,19Z)-1-(hexadecyloxy)-3-hydroxypropan-2-yl docosa-4,7,10,13,16,19-hexanenoate]
- Relative total EtnPls content ([1]; normalized to untreated control CHO cells): 86.9%
- Total DHA-EtnPls pool ([1]; of CHO levels): 136.8%
- Total PtdEt content ([1]; of untreated control): 54.9%
- DHA-PtdEt pool ([1]; vs untreated control CHO): 93.5%
- Relative total EtnPls content ([2]; normalized to untreated control CHO cells, vehicle 10.8%): 44.2%
- Total DHA-EtnPls pool ([2]; of CHO levels, vehicle 8.7%): 72.3%
- Total PtdEt content ([2]; of the control CHO): 55.9%
- DHA-PtdEt pool ([2]; vs untreated control CHO): 110.6%
- Esterified cholesterol ([3]; NRel-4 cells treated with 5a, vehicle NRel-4 1.84): 2.49 μg/million cells
- Free cholesterol content ([3]; NRel-4 cells treated with 5a, vehicle NRel-4 8.9, CHO 4.5): 5.8 μg/million cells
- Total cholesterol content ([3]; NRel-4 cells, 72 hours, 20 μM (N_5a), vehicle NRel-4 10.75, CHO 6.66): 8.28 μg/million cells
- Total cholesterol content higher than control ([3]; NRel-4 cells, 72 hours, 20 μM, vs CHO vehicle control): 24%
- Increase in the esterified fraction of cholesterol ([3]; NRel-4 cells, vs vehicle-treated NRel-4): 34%
